Numbers after ± are expanded uncertainties.
Assay: xn = mol fraction of the nth substance listed
Details: Liquid, Vibrating tube method

CC(C)=O [acetone] + CCCCCCC
Details	mass density [kg/m3]
347.63 K, 54850 kPa, x1 = 0.492	716.07 ± 1.4
347.63 K, 59840 kPa, x1 = 0.801	752.99 ± 1.4
347.63 K, 59850 kPa, x1 = 0.492	719.82 ± 1.4
347.63 K, 64820 kPa, x1 = 0.801	756.73 ± 1.4
347.63 K, 64830 kPa, x1 = 0.492	723.43 ± 1.4
347.63 K, 64920 kPa, x1 = 0.611	733.74 ± 1.4
347.63 K, 69910 kPa, x1 = 0.801	760.44 ± 1.4
347.63 K, 69920 kPa, x1 = 0.611	737.26 ± 1.4
347.63 K, 69930 kPa, x1 = 0.492	726.98 ± 1.4
347.63 K, 74910 kPa, x1 = 0.492	730.29 ± 1.5
347.63 K, 79900 kPa, x1 = 0.492	733.48 ± 1.5
347.63 K, 84860 kPa, x1 = 0.801	770.5 ± 1.4
347.63 K, 84880 kPa, x1 = 0.492	736.56 ± 1.5
347.63 K, 89840 kPa, x1 = 0.801	773.63 ± 1.5
347.63 K, 89860 kPa, x1 = 0.492	739.56 ± 1.5
347.63 K, 94820 kPa, x1 = 0.801	776.66 ± 1.5
347.63 K, 104780 kPa, x1 = 0.801	782.49 ± 1.5
347.63 K, 104800 kPa, x1 = 0.492	747.95 ± 1.6
347.63 K, 109760 kPa, x1 = 0.611	761.37 ± 1.6
347.63 K, 109760 kPa, x1 = 0.801	785.29 ± 1.5
347.63 K, 109770 kPa, x1 = 0.492	750.58 ± 1.6
347.63 K, 114860 kPa, x1 = 0.801	788.08 ± 1.5
347.63 K, 119840 kPa, x1 = 0.801	790.72 ± 1.6
347.63 K, 124840 kPa, x1 = 0.492	758.13 ± 1.7
347.63 K, 124840 kPa, x1 = 0.611	769.09 ± 1.6
347.63 K, 129860 kPa, x1 = 0.492	760.49 ± 1.7
347.63 K, 129860 kPa, x1 = 0.801	795.81 ± 1.6
347.64 K, 14870 kPa, x1 = 0.611	686.95 ± 1.2
347.64 K, 19860 kPa, x1 = 0.611	693.03 ± 1.2
347.64 K, 24870 kPa, x1 = 0.611	698.69 ± 1.3
347.64 K, 29860 kPa, x1 = 0.611	703.93 ± 1.3
347.64 K, 34870 kPa, x1 = 0.611	708.89 ± 1.3
347.64 K, 39870 kPa, x1 = 0.611	713.55 ± 1.3
347.64 K, 44850 kPa, x1 = 0.611	717.99 ± 1.3
347.64 K, 49850 kPa, x1 = 0.611	722.19 ± 1.4
347.64 K, 54850 kPa, x1 = 0.611	726.18 ± 1.4
347.64 K, 59940 kPa, x1 = 0.611	730.09 ± 1.4
347.64 K, 74910 kPa, x1 = 0.611	740.63 ± 1.4
347.64 K, 79900 kPa, x1 = 0.611	743.88 ± 1.5
347.64 K, 84880 kPa, x1 = 0.611	747.05 ± 1.5
347.64 K, 89870 kPa, x1 = 0.611	750.1 ± 1.5
347.64 K, 94840 kPa, x1 = 0.611	753.04 ± 1.5
347.64 K, 94850 kPa, x1 = 0.492	742.44 ± 1.6
347.64 K, 99820 kPa, x1 = 0.492	745.23 ± 1.6
347.64 K, 99820 kPa, x1 = 0.611	755.91 ± 1.6
347.64 K, 104780 kPa, x1 = 0.611	758.67 ± 1.6
347.64 K, 114850 kPa, x1 = 0.492	753.18 ± 1.6
347.64 K, 114870 kPa, x1 = 0.611	764.04 ± 1.6
347.64 K, 119840 kPa, x1 = 0.611	766.59 ± 1.6
347.64 K, 119860 kPa, x1 = 0.492	755.69 ± 1.7
347.64 K, 129860 kPa, x1 = 0.611	771.5 ± 1.7
357.54 K, 1050 kPa, x1 = 0.7024	664.83 ± 1.2
357.54 K, 4810 kPa, x1 = 0.7024	671.47 ± 1.2
357.54 K, 9820 kPa, x1 = 0.7024	679.43 ± 1.2
357.54 K, 14810 kPa, x1 = 0.7024	686.58 ± 1.2
357.54 K, 14860 kPa, x1 = 0.611	677.52 ± 1.2
357.54 K, 19810 kPa, x1 = 0.7024	693.14 ± 1.2
357.54 K, 24800 kPa, x1 = 0.7024	699.18 ± 1.3
357.54 K, 29900 kPa, x1 = 0.7024	704.93 ± 1.3
357.54 K, 34880 kPa, x1 = 0.7024	710.21 ± 1.3
357.54 K, 39870 kPa, x1 = 0.7024	715.16 ± 1.3
357.54 K, 44860 kPa, x1 = 0.7024	719.83 ± 1.3
357.54 K, 49860 kPa, x1 = 0.7024	724.29 ± 1.4
357.54 K, 54850 kPa, x1 = 0.7024	728.52 ± 1.4
357.54 K, 59830 kPa, x1 = 0.7024	732.55 ± 1.4
357.54 K, 64830 kPa, x1 = 0.7024	736.42 ± 1.4
357.54 K, 69820 kPa, x1 = 0.7024	740.13 ± 1.4
357.54 K, 74790 kPa, x1 = 0.7024	743.68 ± 1.4
357.54 K, 84760 kPa, x1 = 0.7024	750.39 ± 1.5
357.54 K, 94820 kPa, x1 = 0.7024	756.74 ± 1.5
357.55 K, 1070 kPa, x1 = 0.611	655.88 ± 1.2
357.55 K, 1080 kPa, x1 = 0.492	647.12 ± 1.2
357.55 K, 1300 kPa, x1 = 0.4	692.98 ± 1.2
357.55 K, 1300 kPa, x1 = 0.8992	692.98 ± 1.2
357.55 K, 4850 kPa, x1 = 0.492	653.64 ± 1.2
357.55 K, 4860 kPa, x1 = 0.611	662.51 ± 1.2
357.55 K, 5030 kPa, x1 = 0.4	699.4 ± 1.2
357.55 K, 5030 kPa, x1 = 0.8992	699.4 ± 1.2
357.55 K, 9850 kPa, x1 = 0.492	661.43 ± 1.2
357.55 K, 9860 kPa, x1 = 0.611	670.41 ± 1.2
357.55 K, 10030 kPa, x1 = 0.4	707.18 ± 1.2
357.55 K, 10030 kPa, x1 = 0.8992	707.18 ± 1.2
357.55 K, 14850 kPa, x1 = 0.492	668.43 ± 1.2
357.55 K, 15010 kPa, x1 = 0.4	714.27 ± 1.3
357.55 K, 15010 kPa, x1 = 0.8992	714.27 ± 1.2
357.55 K, 19840 kPa, x1 = 0.492	674.79 ± 1.3
357.55 K, 19870 kPa, x1 = 0.611	684.02 ± 1.3
357.55 K, 20010 kPa, x1 = 0.4	720.81 ± 1.3
357.55 K, 20010 kPa, x1 = 0.8992	720.81 ± 1.2
357.55 K, 24840 kPa, x1 = 0.492	680.72 ± 1.3
357.55 K, 24850 kPa, x1 = 0.611	689.97 ± 1.3

Reference: the NIST ThermoML archive (doi:10.1016/j.fluid.2010.10.028)
